ChEMBL document CHEMBL1833794, “Synthesis and biological evaluation of 1-substituted-3-(6-methylpyridin-2-yl)-4-([1,2,4]triazolo[1,5-a]pyridin-6-yl)pyrazoles as transforming growth factor-β type 1 receptor kinase inhibitors” (Bioorg Med Chem Lett, 2011)

Key:
Conditions in all cases: in vivo
[1] = Oral bioavailability in rat at 50.3 mg/kg; format: ADME, organism-based
[2] = Oral bioavailability in mouse at 50.3 mg/kg; format: ADME, organism-based
[3] = Oral bioavailability in dog at 5.5 mg/kg; format: ADME, organism-based, Canis lupus familiaris
[4] = Oral bioavailability in rhesus monkey at 5.5 mg/kg; format: ADME, organism-based, Macaca mulatta

- bioavailability [1]: 11.4%
- bioavailability [2]: 8.95%
- bioavailability [3]: 84.9%
- bioavailability [4]: 34.4%
SMILES: Cc1cccc(-c2[nH]c(Cc3cccc(C(N)=O)c3)nc2-c2ccc3nccnc3c2)n1
